Assay results as given in patent US7396849B2, “4-(Condensed cyclicmethyl)-imidazole-2-thiones acting as α2 adrenergic agonists” (Allergan, Inc., priority 2004, dated 2008).

Assays:
[1] = target: T1, alpha2B adrenergic receptors (Homo sapiens, UniProt P18089); experiment: RSAT assay (Receptor Selection and Amplification Technology), alpha2B; format: cell-based; details: NIH-3T3 cells, ratio of maximal effect to that of standard full agonist brimonidine, NA = not active below 10 micromolar
T1 construct: expressed in transfected cells; host or cells: NIH-3T3 cells
T1 sequence (P18089 1-450): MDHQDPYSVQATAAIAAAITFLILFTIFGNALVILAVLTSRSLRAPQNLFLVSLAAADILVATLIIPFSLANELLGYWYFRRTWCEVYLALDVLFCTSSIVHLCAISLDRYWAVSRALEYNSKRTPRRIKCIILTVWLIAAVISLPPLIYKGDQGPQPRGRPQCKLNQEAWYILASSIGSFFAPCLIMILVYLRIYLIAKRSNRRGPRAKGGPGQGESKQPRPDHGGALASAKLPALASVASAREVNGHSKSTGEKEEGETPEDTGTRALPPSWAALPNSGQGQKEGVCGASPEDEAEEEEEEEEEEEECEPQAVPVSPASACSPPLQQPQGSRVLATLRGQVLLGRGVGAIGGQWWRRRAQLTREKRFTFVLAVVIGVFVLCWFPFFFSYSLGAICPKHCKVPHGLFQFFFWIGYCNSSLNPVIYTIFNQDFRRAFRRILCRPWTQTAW
Excerpt: The imidazole-2-thione compounds of the invention are agonists of alpha2 adrenergic receptors. Many compounds of the invention are specific or selective agonists of alpha2B and/or to a lesser extent alpha2C adrenergic receptors, in preference over alpha2A adrenergic receptors. […] 76, pp. 308-311 (incorporated herein by reference) and is also described below. Another reference pertinent to this assay is Conklin et al. (1993) Nature 363:274-6, Receptor Selection and Amplification Technology (RSAT) assay, also incorporated herein by reference.
The RSAT assay measures a receptor-mediated loss of contact inhibition that results in selective proliferation of receptor-containing cells in a mixed population of confluent cells. The increase in cell number is assessed with an appropriate transfected marker gene such as β-galactosidase, the activity of which can be easily measured in a 96-well format. Receptors that activate the G protein, Gq, elicit this response. Alpha2 receptors, which normally couple to Gi, activate the RSAT response when coexpressed with a hybrid Gq protein that has a Gi receptor recognition domain, called Gq/i5.
NIH-3T3 cells are plated at a density of 2×10^6 cells in 15 cm dishes and maintained in Dulbecco's modified Eagle's medium supplemented with 10% calf serum. One day later, cells are cotransfected by calcium phosphate precipitation with mammalian expression plasmids encoding p-SV-β-galactosidase (5-10 μg), receptor (1-2 μg) and G protein (1-2 μg). 40 μg salmon sperm DNA may also be included in the transfection mixture. Fresh media is added on the following day and 1-2 days later, cells are harvested and frozen in 50 assay aliquots. Cells are thawed and 100 μl added to 100 μl aliquots of various concentrations of drugs in triplicate in 96-well dishes. Incubations continue 72-96 hr at 37° C. After washing with phosphate-buffered saline, β-galactosidase enzyme activity is determined by adding 200 μl of the chromogenic substrate (consisting of 3.5 mM o-nitrophenyl-β-D-galactopyranoside and 0.5% nonidet P-40 in phosphate buffered saline), incubating overnight at 30° C. and measuring optical density at 420 nm. The absorbance is a measure of enzyme activity, which depends on cell number and reflects a receptor-mediated cell proliferation. The efficacy or intrinsic activity is calculated as a ratio of the maximal effect of the drug to the maximal effect of a standard full agonist for each receptor subtype. Brimonidine, also called UK14304, the chemical structure of which is shown below, is used as the standard agonist for the alpha2A, alpha2B and alpha2C receptors.
The results of the RSAT assay with several exemplary compounds of the invention are disclosed in Table 1 above together with the chemical formulas of these examplary compounds. NA stands for “not active” at cohcentrations less than 10 micromolar.

[2] = tested on: Chung Model of Neuropathic Pain; experiment: Chung model of neuropathic pain (tactile allodynia, von Frey hairs); format: in vivo, rats; details: 30 min following drug administration
Excerpt: A model in accordance with Kim and Chung 1992, Pain […], pp 355-363 (Chung model), for chronic pain (in particular peripheral neuropathy) involves the surgical ligation of the L5 (and optionally the L6) spinal nerves on one side in experimental animals. Rats recovering from the surgery gain weight and display a level of general activity similar to that of normal rats. However, these rats develop abnormalities of the foot, wherein the hindpaw is moderately everted and the toes are held together. More importantly, the hindpaw on the side affected by the surgery appears to become sensitive to pain from low-threshold mechanical stimuli, such as that producing a faint sensation of touch in a human, within about 1 week following surgery. This sensitivity to normally non-painful touch is called “tactile allodynia” and lasts for at least two months. The response includes lifting the affected hindpaw to escape from the stimulus, licking the paw and holding it in the air for many seconds. None of these responses is normally seen in the control group.
Rats are anesthetized before surgery. The surgical site is shaved and prepared either with betadine or Novacaine. Incision is made from the thoracic vertebra XIII down toward the sacrum. Muscle tissue is separated from the spinal vertebra (left side) at the L4-S2 levels. The L6 vertebra is located and the transverse process is carefully removed with a small rongeur to expose the L4-L6 spinal nerves. The L5 and L6 spinal nerves are isolated and tightly ligated with 6-0 silk thread. The same procedure is done on the right side as a control, except no ligation of the spinal nerves is performed.
A complete hemostasis is confirmed, then the wounds are sutured. A small amount of antibiotic ointment is applied to the incised area, and the rat is transferred to the recovery plastic cage under a regulated heat-temperature lamp. On the day of the experiment, at least seven days after the surgery, typically six rats per test group are administered the test drugs by intraperitoneal (i.p.) injection or oral gavage. […], the compounds are formulated in d H2O and given in a volume of 1 ml/kg body weight using an 18-gauge, 3 inch gavage needle that is slowly inserted through the esophagus into the stomach.
Tactile allodynia is measured prior to and 30 minutes after drug administration using von Frey hairs that are a series of fine hairs with incremental differences in stiffness. Rats are placed in a plastic cage with a wire mesh bottom and allowed to acclimate for approximately 30 minutes. The von Frey hairs are applied perpendicularly through the mesh to the mid-plantar region of the rats' hindpaw with sufficient force to cause slight buckling and held for 6-8 seconds. The applied force has been calculated to range from 0.41 to 15.1 grams. If the paw is sharply withdrawn, it is considered a positive response. A normal animal will not respond to stimuli in this range, but a surgically ligated paw will be withdrawn in response to a 1-2 gram hair. The 50% paw withdrawal threshold is determined using the method of Dixon, W. J., Ann. Rev. Pharmacol. Toxicol. 20:441-462 (1980) hereby incorporated by reference. The post-drug threshold is compared to the pre-drug threshold and the percent reversal of tactile sensitivity is calculated based on a normal threshold of 15.1 grams.
All measurements 30 min following drug administration. p value<0.001 compared to pretreatment values.

Sprague-Dawley rats = experiment: Sedative activity (exploratory behavior after i.p. injection); format: in vivo; details: intraperitoneally, up to a dose of 1 mg/kg
Protocol: To test sedation, six male Sprague-Dawley rats are given up to 3 mg/kg of the test compound in a saline or DMSO vehicle by intraperitoneal injection (i.p.). Sedation is graded 30 minutes following administration of the drug by monitoring locomotor skills as follows.
The Sprague-Dawley rats are weighed and 1 ml/kg body weight of an appropriate concentration (ie. 3 mg/ml for a final dose of 3 mg/kg) drug solution is injected intraperitoneally. Typically the test compound is formulated in approximately 10 to 50% DMSO. The results are compared to controls that are injected with 1 ml/kg saline or 10 to 50% DMSO. Rat activity is then determined 30 minutes after injection of the drug solution. Rats are placed in a dark covered chamber and a digicom analyzer (Omnitech Electronic) quantitates their exploratory behavior for a five-minute period. The machine records each time the rat interrupts an array of 32 photoelectric beams in the X and Y orientation.
Effects on Cardiovascular System

| SMILES | Intrinsic Activity Alpha 2B [1] | % Pain Reversal ± SEM ([2]; 10 μg/kg i.p.) [%] | % Pain Reversal ± SEM ([2]; 30 μg/kg i.p.) [%] | % Pain Reversal ± SEM ([2]; 30 μg/kg p.o.) [%] | % Pain Reversal ± SEM ([2]; 300 μg/kg i.p.) [%] | sedative effect (Sprague-Dawley rats) | % Pain Reversal ± SEM ([2]; 3 μg/kg p.o.) [%] | % Pain Reversal ± SEM ([2]; 10 μg/kg p.o.) [%] | % Pain Reversal ± SEM ([2]; 100 μg/kg p.o.) [%] |
| --- | --- | --- | --- | --- | --- | --- | --- | --- | --- |
| CC(c1c[nH]c(=S)[nH]1)c1cccc2ncccc12 (racemic) [Compound 7, 4-(1-quinolin-5-yl-ethyl)-1,3-dihydro-imidazole-2-thione] | 0.90 | 2.9 ± 0.7 | 65.8 ± 6.1 | 77.0 ± 5.1 | 77.7 ± 7.2 | no sedative effect |  |  |  |
| CC(c1c[nH]c(=S)[nH]1)c1cccc2ncccc12 (single isomer, unassigned; (-)) [Compound 15, (−)-4-(1-quinolin-5-yl-ethyl)-1,3-dihydro-imidazole-2-thione] | 0.89 |  |  | 82.0 ± 6.2 |  | no sedative effect | 58.0 ± 5.3 | 78.0 ± 4.6 | 81.0 ± 8.1 |
